According to US20090176794A1, “1H-INDOL-1-YL-UREA COMPOUNDS” (LES LABORATOIRES SERVIER, priority 2008, published 2009):

Key:
[1] = Predicted metabolic stability, rat hepatic microsomes; assay type: in vitro ADME; conditions: rat hepatic microsomes 0.33 mg prot/ml; compound 10^-7 M; NADPH; 0-60 min
Description: (§1) The predicted metabolic stability is tested by incubation of the compounds at a concentration of 10^−7M in the presence of mouse, rat or human hepatic microsomes (0.33 mg of prot/ml). After addition of NADPH (nicotinamide adenine dinucleotide phosphate, reduced form), samples are taken at 0, 5, 15, 30 and 60 minutes. The enzymatic reaction is stopped using methanol (V/V). The protein is precipitated by centrifugation and the supernatant is analysed by LC-MS-MS.

[2] = tested on: tyrosine hydroxylase (TH) protein in the locus coeruleus (LC); experiment: Induction of tyrosine hydroxylase in the locus coeruleus after i.p. injection; assay type: in vivo; conditions: i.p. 20 mg/kg, three days after single injection, Balb/C mouse; for amount of TH in LC section 1, relative to the mean value of the control group: LC section 1 (anterior-to-posterior)
From the text: A search is made among the compounds for those which are capable of bringing about an increase in the tyrosine hydroxylase (TH) protein in the locus coeruleus (LC) of the brain of the Balb/C mouse.
The animals used are male mice of the pure Balb/C strain (Charles River Laboratories) aged from 7 to 8 weeks at the time of treatment.
The mice are given a single injection, by the intraperitoneal route, of the compound under test, dissolved in 0.04M HCl solution (corresponding control: […]), if the compound is sufficiently soluble, or in olive oil 90%/DMSO 10% (corresponding control: olive oil 90%/DMSO 10%) for compounds that are insoluble in an aqueous medium.
Three days after the injection of each compound, all the animals are sacrificed by decapitation. The brains are removed and then frozen in liquid nitrogen and stored at −80° C.
Coronal sections 8 microns thick are taken along the posterior-anterior axis of the LC and fixed. The sections are transferred onto Immobilon-P membranes. The TH is measured by immunodetection and image analysis.

[3] = tested on: confluent endothelial cells from bovine capillaries; experiment: Predicted crossing of the blood-brain barrier (BBB); assay type: in vitro ADME; design: key: high; intermediate; low; conditions: 20 μM in upper compartment; filter with bovine capillary endothelial cells; 10-60 min
Description: The substances are incubated at 20 μM in the upper compartment of a double container, the upper compartment being separated from the lower compartment either solely by a polycarbonate filter or by the same filter covered with confluent endothelial cells from bovine capillaries. Evaluation of the permeability kinetics is carried out by means of LC-MS-MS quantification of the unchanged substance in the lower compartment after 10, 20, 30, 40 and 60 minutes.

ERK1 [4] = target: T1, ERK1 (Homo sapiens, UniProt P27361); experiment: Biacore direct interaction with recombinant ERK1; assay type: binding
From the text: (§2) Various forms of non-phosphorylated recombinant ERK (ERK1 and ERK2) and of phosphorylated recombinant ERK (p-ERK1 and p-ERK2) are fixed separately on “chips” and studied in the Biacore® system. The direct interaction of the compound of Example 1 at different concentrations is studied. • 2. Results

ERK1 [5] = target: T1, ERK1; experiment: ERK1 phosphorylation ex vivo in pig brain tissues; assay type: biochemical; design: host or cells: recombinant protein added to pig brain tissue preparations; conditions: 3×10^-9 M
From the text: (§3) The various brain structures are isolated, treated and suspended in a medium without phosphate, after inactivation of the phosphatases of the tissues. The tissues are cleared of their own ERK and p-ERK and placed in the presence of specific recombinant forms of ERK1, ERK2, p-ERK1 and p-ERK2.
(§4) The phosphorylation capacities are studied in the presence and absence of the compound of Example 1 by means of antibodies that allow evaluation of non-phosphorylated and phosphorylated ERK1 and ERK2. • 2. Results

ERK2 [6] = target: T2, ERK2 (Homo sapiens, UniProt P28482); experiment: Biacore direct interaction with recombinant ERK2; assay type: binding
From the text: as §2

ERK2 [7] = target: T2, ERK2; experiment: ERK2 phosphorylation ex vivo in pig brain tissues; assay type: biochemical; design: host or cells: recombinant protein added to pig brain tissue preparations; conditions: 3×10^-9 M
From the text: as §3, §4

[8] = Predicted metabolic stability, human hepatic microsomes; assay type: in vitro ADME; conditions: human hepatic microsomes 0.33 mg prot/ml; compound 10^-7 M; NADPH; 0-60 min
Description: as §1

[9] = Predicted metabolic stability, mouse hepatic microsomes; assay type: in vitro ADME; conditions: mouse hepatic microsomes 0.33 mg prot/ml; compound 10^-7 M; NADPH; 0-60 min
Description: as §1

[10] = pig brain prefrontal cortex ex vivo

T2 sequence (P28482 whole entry, species assumed): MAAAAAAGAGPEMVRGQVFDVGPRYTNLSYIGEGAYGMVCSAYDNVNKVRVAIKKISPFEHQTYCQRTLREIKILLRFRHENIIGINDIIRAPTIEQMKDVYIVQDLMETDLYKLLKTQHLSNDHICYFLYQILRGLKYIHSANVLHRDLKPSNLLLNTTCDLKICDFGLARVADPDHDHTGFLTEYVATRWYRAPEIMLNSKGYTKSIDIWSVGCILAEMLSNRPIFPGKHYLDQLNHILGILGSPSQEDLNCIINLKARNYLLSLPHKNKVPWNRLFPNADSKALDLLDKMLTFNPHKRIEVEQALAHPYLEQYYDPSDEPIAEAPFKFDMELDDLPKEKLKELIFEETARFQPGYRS
T1 sequence (P27361 whole entry, species assumed): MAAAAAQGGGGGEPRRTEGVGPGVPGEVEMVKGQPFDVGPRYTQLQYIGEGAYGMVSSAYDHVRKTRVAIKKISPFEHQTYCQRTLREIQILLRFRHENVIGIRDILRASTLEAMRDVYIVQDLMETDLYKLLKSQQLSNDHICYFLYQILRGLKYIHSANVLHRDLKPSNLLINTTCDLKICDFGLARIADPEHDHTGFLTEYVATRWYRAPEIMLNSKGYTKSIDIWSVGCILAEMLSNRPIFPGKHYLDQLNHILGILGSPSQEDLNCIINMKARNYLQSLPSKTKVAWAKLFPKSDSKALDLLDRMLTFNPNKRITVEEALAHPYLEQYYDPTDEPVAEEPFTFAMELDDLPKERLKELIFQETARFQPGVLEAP

SMILES | % metabolic stability predicted using hepatic microsomes, Rat [1] [%] | amount of TH in LC section 1, relative to the mean value of the control group [2] [%] | amount of TH in LC section 2, relative to the mean value of the control group [2] [%] | amount of TH in LC section 3, relative to the mean value of the control group [2] [%] | amount of TH in LC section 4, relative to the mean value of the control group [2] [%] | amount of TH in LC section 5, relative to the mean value of the control group [2] [%] | amount of TH in LC section 6, relative to the mean value of the control group [2] [%] | amount of TH in LC section 7, relative to the mean value of the control group [2] [%] | amount of TH in LC section 8, relative to the mean value of the control group [2] [%] | % metabolic stability predicted using hepatic microsomes, Human [8] [%] | % metabolic stability predicted using hepatic microsomes, Mouse [9] [%] | other results
O=C(Nc1cccnc1)Nn1ccc2ccccc21 [Example 1, N-(1H-indol-1-yl)-N′-(3-pyridyl)urea] | 78 | 66 | 85 | 74 | 64 | 45 | 40 | 8 | 2 | 72 | 78 | degree of crossing of the BBB (category) [3]: high; binding to ERK1 (ERK1 [4]; non-phosphorylated recombinant ERK1 on chip, different concentrations): binds strongly; binding to ERK1 when the corresponding phosphorylated ERK is added to the medium (ERK1 [4]; p-ERK1 added to the medium): inhibited; phosphorylation of ERK1 in the hippocampus (ERK1 [5]; pig brain hippocampus ex vivo): increases; phosphorylation of ERK1 in the prefrontal cortex (ERK1 [5]; [10]): increases; binding to ERK2 (ERK2 [6]; non-phosphorylated recombinant ERK2 on chip, different concentrations): binds strongly; binding to ERK2 when the corresponding phosphorylated ERK is added to the medium (ERK2 [6]; p-ERK2 added to the medium): inhibited; phosphorylation of ERK2 in the hippocampus (ERK2 [7]; pig brain hippocampus ex vivo): increases; phosphorylation of ERK2 in the prefrontal cortex (ERK2 [7]; [10]): increases; phosphorylation of ERK2 in the striatum (ERK2 [7]; pig brain striatum ex vivo): increases
O=C(Nc1cccnc1)NN1CCc2ccccc21 [Example 2, N-(2,3-dihydro-1H-indol-1-yl)-N′-(3-pyridyl)urea] | 55 | 63 | 77 | 64 | 57 | 34 | 15 | 8 | 2 | 98 | 85 | –
O=C(Nc1ccncc1)Nn1ccc2ccccc21 [Example 6, N-(1H-indol-1-yl)-N′-(4-pyridyl)urea] | 73 | 65 | 81 | 59 | 33 | 20 | 13 | 8 | 2 | 77 | 77 | –
O=C(Nc1ccncc1)Nn1ccc2cc(Cl)ccc21 [Example 13, N-(5-chloro-1H-indol-1-yl)-N′-(4-pyridyl)urea] | 89 | – | – | – | – | – | – | – | – | 82 | 84 | –
O=C(NCc1ccccn1)Nn1ccc2ccccc21 [Example 24, N-(1H-indol-1-yl)-N′-(2-pyridylmethyl)urea] | 69 | 74 | 78 | 68 | 45 | 29 | 19 | 5 | 7 | 67 | 72 | –
